Assay results from patent publication US20090042962A1, “Therapeutic Agent for Keratoconjunctival Disorder” (SANTEN PHARMACEUTICAL CO., LTD., priority 2005, published 2009).

Tested on: corneal disorder models
Assay: Test for therapeutic effect on corneal damage (exorbital lacrimal gland removal, fluorescein staining score)
Assay type: in vivo, male SD rats
Conditions: for Improvement ratio (%): instilled 6 times a day for 14 days; for Mean value of scores: instilled into both eyes 6 times a day for 14 days, fluorescein staining total score
Protocol: Using male SD rats, corneal disorder models were produced in accordance with the method of Fujihara et al. (Invest. Opthalmol. Vis. Sci. 42 (1): 96-100 (2001)) After the production of the corneal disorder models, the corneal damage score was evaluated in accordance with the method of Murakami et al. (Journal of the eye 21 (1): 87-90 (2004)), and the improvement ratio of a corneal damage after instillation was obtained.
Male SD rats were systemically anesthetized by an administration of Nembutal. Subsequently the exorbital lacrimal gland of each rat was removed and a corneal damage was induced over a period of 2 months.
Then, 4′-[[4-methyl-6-(1-methylbenzimidazol-2-yl)-2-n-propylbenzimidazol-1-yl]methyl]-1,1′-biphenyl-2-carboxylic acid (hereinafter referred to as “Compound A”), 2-n-butyl-4-spirocyclopentane-1-[[2′-(1H-tetrazol-5-yl)-1,1′-biphenyl-4-yl]methyl]-2-imidazolin-5-one (hereinafter referred to as “Compound B”), 2-butyl-4-chloro-5-hydroxymethyl-1-[[2′-(1H-tetrazol-5-yl)-1,1′-biphenyl-4-yl]methyl]imidazole monopotassium salt (hereinafter referred to as “Compound C”), 2-ethoxy-1-[[2′-(1H-tetrazol-5-yl)-1,1′-biphenyl-4-yl]methyl]-1H-benzimidazol-7-carboxylic acid (hereinafter referred to as “Compound D”) […] N-[[2′-(1H-tetrazol-5-yl)-1,1′-biphenyl-4-yl]methyl]-N-valeryl-L-valine (hereinafter referred to as “Compound E”), or 4-(1-hydroxy-1-methylethyl)-2-n-propyl-1-[[2′-(1H-tetrazol-5-yl)-1,1′-biphenyl-4-yl]methyl]imidazol-5-carboxylic acid monohydrate (hereinafter referred to as “Compound F”) was administered to the rats as follows.
A physiological saline solution containing Compound A (0.005%) was instilled into both eyes 6 times a day for 14 days (one group consisting of 4 animals, 8 eyes).
A physiological saline solution containing Compound B (0.04%) was instilled into both eyes 6 times a day for 14 days (one group consisting of 4 animals, 8 eyes).
A physiological saline solution containing Compound C (0.5%) was instilled into both eyes 6 times a day for 14 days (one group consisting of 3 animals, 6 eyes).
A phosphate-buffered saline solution containing Compound D (0.004%) was instilled into both eyes 6 times a day for 14 days (one group consisting of 4 animals, 8 eyes).
A phosphate-buffered saline solution containing Compound E (0.004%) was instilled into both eyes 6 times a day for 14 days (one group consisting of 4 animals, 8 eyes).
A phosphate-buffered saline solution containing Compound F (0.004%) was instilled into both eyes 6 times a day for 14 days (one group consisting of 4 animals, 8 eyes).
In a control group, physiological saline or phosphate-buffered saline was instilled into both eyes 6 times a day for 14 days (one group consisting of 4 animals, 8 eyes).
Fourteen days after the start of instillation, the damaged parts of the cornea were stained with fluorescein. For each of the upper, middle and lower parts of the cornea, the degree of fluorescein staining was evaluated by scoring according to the criteria shown below and the improvement ratio of corneal damage was calculated from the mean value of the total scores for each of the above-mentioned parts. Also for normal eyes, the mean value of the total scores for each of the above-mentioned parts was obtained.
0: No punctate staining 1: Scattered staining (punctate staining being separated) 2: Moderate staining (a part of punctate staining being adjacent) 3: Heavy staining (punctate staining being barely separated)
Incidentally, the mean value of the scores is a mean of those of 8 cases or 6 cases, respectively.
Improvement ratio (%)={(control)−(the present compound)}/damage degree×100 Damage degree=(control)−(normal eye)

[1] = 0.004% in phosphate-buffered saline, vs phosphate-buffered saline control, Table 2
[2] = 0.004% in phosphate-buffered saline, Table 2 (normal eye 2.5, control 4.6)

CCCCc1nc(Cl)c(CO)n1Cc1ccc(-c2ccccc2-c2nnn[nH]2)cc1.[K] [Compound C, 2-butyl-4-chloro-5-hydroxymethyl-1-[[2′-(1H-tetrazol-5-yl)-1,1′-biphenyl-4-yl]methyl]imidazole monopotassium salt]
Improvement ratio (%) (0.5% in physiological saline, vs physiological saline control, Table 1): 87.5% | Mean value of scores (0.5% in physiological saline, Table 1 (normal eye 3.3, control 4.9)): 3.5

CCCc1nc2c(C)cc(-c3nc4ccccc4n3C)cc2n1Cc1ccc(-c2ccccc2C(=O)O)cc1 [Compound A, 4′-[[4-methyl-6-(1-methylbenzimidazol-2-yl)-2-n-propylbenzimidazol-1-yl]methyl]-1,1′-biphenyl-2-carboxylic acid]
Improvement ratio (%) (0.005% in physiological saline, vs physiological saline control, Table 1): 62.5% | Mean value of scores (0.005% in physiological saline, Table 1 (normal eye 3.3, control 4.9)): 3.9

CCCCC(=O)N(Cc1ccc(-c2ccccc2-c2nnn[nH]2)cc1)[C@H](C(=O)O)C(C)C [Compound E, N-[[2′-(1H-tetrazol-5-yl)-1,1′-biphenyl-4-yl]methyl]-N-valeryl-L-valine]
Improvement ratio (%) [1]: 33.3% | Mean value of scores [2]: 3.9

CCOc1nc2cccc(C(=O)O)c2n1Cc1ccc(-c2ccccc2-c2nnn[nH]2)cc1 [Compound D, 2-ethoxy-1-[[2′-(1H-tetrazol-5-yl)-1,1′-biphenyl-4-yl]methyl]-1H-benzimidazol-7-carboxylic acid]
Improvement ratio (%) [1]: 47.6% | Mean value of scores [2]: 3.6

CCCc1nc(C(C)(C)O)c(C(=O)O)n1Cc1ccc(-c2ccccc2-c2nnn[nH]2)cc1.O [Compound F, 4-(1-hydroxy-1-methylethyl)-2-n-propyl-1-[[2′-(1H-tetrazol-5-yl)-1,1′-biphenyl-4-yl]methyl]imidazol-5-carboxylic acid monohydrate]
Improvement ratio (%) (0.004% in phosphate-buffered saline, vs phosphate-buffered saline control, Table 3): 65.9% | Mean value of scores (0.004% in phosphate-buffered saline, Table 3 (normal eye 2.2, control 6.3)): 3.6

CCCCC1=NC2(CCCC2)C(=O)N1Cc1ccc(-c2ccccc2-c2nnn[nH]2)cc1 [Compound B, 2-n-butyl-4-spirocyclopentane-1-[[2′-(1H-tetrazol-5-yl)-1,1′-biphenyl-4-yl]methyl]-2-imidazolin-5-one]
Improvement ratio (%) (0.04% in physiological saline, vs physiological saline control, Table 1): 62.5% | Mean value of scores (0.04% in physiological saline, Table 1 (normal eye 3.3, control 4.9)): 3.9
